Source: patent US9522886B2, “Pyridine derivatives” (Hoffmann-La Roche Inc., priority 2012, dated 2016)
Where two headings read alike, the source gives them in different places.

Experiments:
human CB2 receptors = human CB2 receptors (Homo sapiens (Human), UniProt P34972); test: cAMP assay, CHO cells expressing human CB2 receptors; assay type: cell-based
Protocol: (§1) CHO cells expressing human CB1 or CB2 receptors are seeded 17-24 hours prior to the experiment 50.000 cells per well in a black 96 well plate with flat clear bottom (Corning Costar #3904) in DMEM (Invitrogen No. 31331), 1×HT supplement, with 10% fetal calf serum and incubated at 5% CO2 and 37° C. in a humidified incubator. The growth medium was exchanged with Krebs Ringer Bicarbonate buffer with 1 mM IBMX and incubated at 30° C. for 30 min. Compounds were added to a final assay volume of 100 μl and incubated for 30 min at 30° C. Using the cAMP-Nano-TRF detection kit the assay (Roche Diagnostics) was stopped by the addition of 50 μl lysis reagent (Tris, NaCl, 1.5% Triton X100, 2.5% NP40, 10% NaN3) and 50 μl detection solutions (20 μM mAb Alexa700-cAMP 1:1, and 48 μM Ruthenium-2-AHA-cAMP) and shaken for 2 h at room temperature. The time-resolved energy transfer is measured by a TRF reader (Evotec Technologies GmbH), equipped with a ND:YAG laser as excitation source. The plate is measured twice with the excitation at 355 nm and at the emission with a delay of 100 ns and a gate of 100 ns, total exposure time 10 s at 730 (bandwidth 30 nm) or 645 nm (bandwidth 75 nm), respectively.
(§2) EC50 values were determined using Activity Base analysis (ID Business Solution, Limited).

human CB1 receptors = human CB1 receptors (Homo sapiens (Human), UniProt P21554); test: cAMP assay, CHO cells expressing human CB1 receptors; assay type: cell-based
Protocol: as §1, §2

[1] = functional cAMP assay, CHO cells expressing human CB2, read-out: human CB2 EC50
[2] = functional cAMP assay, CHO cells expressing human CB1, read-out: human CB1 EC50

Chain of human CB1 receptors (P21554 whole entry): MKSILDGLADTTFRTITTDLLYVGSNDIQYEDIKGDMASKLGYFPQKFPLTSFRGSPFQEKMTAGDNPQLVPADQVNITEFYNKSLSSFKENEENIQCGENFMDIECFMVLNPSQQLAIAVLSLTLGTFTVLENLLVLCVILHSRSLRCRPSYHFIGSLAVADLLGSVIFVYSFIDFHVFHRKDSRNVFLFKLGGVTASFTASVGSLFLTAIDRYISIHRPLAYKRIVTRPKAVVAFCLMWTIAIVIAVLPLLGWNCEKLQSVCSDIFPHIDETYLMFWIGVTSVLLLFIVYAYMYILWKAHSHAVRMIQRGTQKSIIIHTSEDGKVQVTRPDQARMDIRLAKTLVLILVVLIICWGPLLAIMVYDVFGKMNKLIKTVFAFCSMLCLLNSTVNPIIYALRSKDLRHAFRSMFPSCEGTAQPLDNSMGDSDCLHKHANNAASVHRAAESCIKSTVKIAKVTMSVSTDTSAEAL
Chain of human CB2 receptors (P34972 whole entry): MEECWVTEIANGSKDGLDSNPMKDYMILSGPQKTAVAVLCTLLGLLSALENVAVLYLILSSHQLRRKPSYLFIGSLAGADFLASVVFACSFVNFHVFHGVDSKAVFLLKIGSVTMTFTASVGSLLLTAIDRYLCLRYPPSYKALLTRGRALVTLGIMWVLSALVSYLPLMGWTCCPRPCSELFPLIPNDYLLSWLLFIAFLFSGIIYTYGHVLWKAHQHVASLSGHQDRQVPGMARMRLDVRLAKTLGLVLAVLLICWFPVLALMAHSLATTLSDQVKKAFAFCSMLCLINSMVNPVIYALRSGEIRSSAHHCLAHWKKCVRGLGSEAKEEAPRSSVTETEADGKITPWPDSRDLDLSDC

| Compound | EC50 (human CB2 receptors; [1]) [nM] | EC50 (human CB1 receptors; [2]) [nM] | EC50 (human CB2 receptors) [nM] | EC50 (human CB1 receptors) [nM] |
| --- | --- | --- | --- | --- |
| CC(C)C[C@@H](CC(N)=O)NC(=O)c1ccc(C2CC2)c(OCC2CC2)n1 [Example 24, (−)-5-Cyclopropyl-6-cyclopropylmethoxy-pyridine-2-carboxylic acid (1-carbamoylmethyl-3-methyl-butyl)-amide] | 3 | > 10000 |  |  |
| NC(=O)CC(NC(=O)c1ccc(C2CC2)c(OCC2CC2)n1)C1CCOCC1 (stereo not shown) [Example 30, 5-Cyclopropyl-6-cyclopropylmethoxy-pyridine-2-carboxylic acid [2-carbamoyl-1-(tetrahydro-pyran-4-yl)-ethyl]-amide] | 8.3 | > 10000 |  |  |
| CC(C)CC(CC(=O)OC(C)(C)C)NC(=O)c1ccc(N2CC(F)(F)C2)c(OCC2CC2)n1 (stereo not shown) [Example 2, tert-Butyl 3-({[6-(cyclopropylmethoxy)-5-(3,3-difluoroazetidin-1-yl)pyridin-2-yl]carbonyl}amino)-5-methylhexanoate] | 676 | > 10000 |  |  |
| NC(=O)CC1(NC(=O)c2ccc(C3(F)COC3)c(OCC3CC3)n2)CSC1 [Example 98, N-[3-(2-Amino-2-oxoethyl)thietan-3-yl]-6-(cyclopropylmethoxy)-5-(3-fluorooxetan-3-yl)pyridine-2-carboxamide] | 1.2 | > 10000 |  |  |
| NC(=O)CC1(NC(=O)c2ccc(C3CC3)c(Cc3ccc(F)cc3)n2)CNC1 [Example 81, N-[3-(2-Amino-2-oxoethyl)azetidin-3-yl]-5-cyclopropyl-6-[(4-fluorophenyl)methyl]pyridine-2-carboxamide] |  |  | 15 | > 10000 |
| NC(=O)CC1(NC(=O)c2ccc(C3(F)COC3)c(OCC3CC3)n2)COC1 [Example 93, N-[3-(2-Amino-2-oxoethyl)oxetan-3-yl]-6-(cyclopropylmethoxy)-5-(3-fluorooxetan-3-yl)pyridine-2-carboxamide] | 14.9 | > 10000 |  |  |
| CC(C)(C)[C@H](CC(N)=O)NC(=O)c1ccc(C2CC2)c(OCC2CC2)n1 [Example 35, 5-Cyclopropyl-6-cyclopropylmethoxy-pyridine-2-carboxylic acid ((S)-1-carbamoylmethyl-2,2-dimethyl-propyl)-amide] | 0.6 | 209 |  |  |
| NC(=O)CC1(NC(=O)c2ccc(C3(O)COC3)c(OCC3CC3)n2)COC1 [Example 94, N-[3-(2-Amino-2-oxoethyl)oxetan-3-yl]-6-(cyclopropylmethoxy)-5-(3-hydroxyoxetan-3-yl)pyridine-2-carboxamide] | 251 | > 10000 |  |  |
| NC(=O)CC1(NC(=O)c2ccc(N3CC(F)(F)C3)c(OCC3CC3)n2)CCNC1 (stereo not shown) [Example 84, N-[3-(2-Amino-2-oxoethyl)pyrrolidin-3-yl]-6-(cyclopropylmethoxy)-5-(3,3-difluoroazetidin-1-yl)pyridine-2-carboxamide] | 67.6 | > 10000 |  |  |
| CNC(=O)CC(CCc1ccccc1)NC(=O)c1ccc(N2CC(F)(F)C2)c(OCC2CC2)n1 (stereo not shown) [Example 8, 6-Cyclopropylmethoxy-5-(3,3-difluoro-azetidin-1-yl)-pyridine-2-carboxylic acid (1-methylcarbamoylmethyl-3-phenyl-propyl)-amide] | 301 | > 10000 |  |  |
| COC(=O)CC1(NC(=O)c2ccc(N3CC(F)(F)C3)c(OCC3CC3)n2)CCC1 [Example 68, Methyl 2-[1-[[6-(cyclopropylmethoxy)-5-(3,3-difluoroazetidin-1-yl)pyridine-2-carbonyl]amino]cyclobutyl]acetate] | 1.1 | > 10000 |  |  |
| COC(=O)CC1(NC(=O)c2ccc(C3CC3)c(OCC3CC3)n2)CCN(C(=O)OC(C)(C)C)CC1 [Example 45, 4-[(5-Cyclopropyl-6-cyclopropylmethoxy-pyridine-2-carbonyl)-amino]-4-methoxycarbonylmethyl-piperidine-1-carboxylic acid tert-butyl ester] | 237 | > 10000 |  |  |
| NC(=O)CC(NC(=O)c1ccc(C2CC2)c(OCC2CC2)n1)C1CCCCC1 (single isomer, unassigned; (-)) [Example 17, (−)-5-Cyclopropyl-6-cyclopropylmethoxy-pyridine-2-carboxylic acid (2-carbamoyl-1-cyclohexyl-ethyl)-amide] | 6.2 | > 10000 |  |  |
| NC(=O)CC1(NC(=O)c2ccc(C3CC3)c(OCC3CC3)n2)CCNCC1 [Example 86, N-[4-(2-Amino-2-oxoethyl)piperidin-4-yl]-5-cyclopropyl-6-(cyclopropylmethoxy)pyridine-2-carboxamide] | 240 | > 10000 |  |  |
| CCOC(=O)CC1(NC(=O)c2ccc(N3CC(F)(F)C3)c(OCC3CC3)n2)CS(=O)(=O)C1 [Example 51, (3-{[6-Cyclopropylmethoxy-5-(3,3-difluoro-azetidin-1-yl)-pyridine-2-carbonyl]-amino}-1,1-dioxo-1λ6-thietan-3-yl)-acetic acid ethyl ester] | 57 | > 10000 |  |  |
| NC(=O)CC1(NC(=O)c2ccc(N3CC(F)(F)C3)c(OCC3CC3)n2)CCC1 [Example 70, N-[1-(2-Amino-2-oxoethyl)cyclobutyl]-6-(cyclopropylmethoxy)-5-(3,3-difluoroazetidin-1-yl)pyridine-2-carboxamide] | 0.6 | > 10000 |  |  |
| NC(=O)CC1(NC(=O)c2ccc(C3CC3)c(OCC3CC3)n2)CS(=O)(=O)C1 [Example 77, N-[3-(2-Amino-2-oxoethyl)-1,1-dioxothietan-3-yl]-5-cyclopropyl-6-(cyclopropylmethoxy)pyridine-2-carboxamide] | 0.7 | > 10000 |  |  |
| NC(=O)CC1(NC(=O)c2ccc(C3(F)CCC3)c(OCC3CC3)n2)COC1 [Example 89, N-[3-(2-Amino-2-oxoethyl)oxetan-3-yl]-6-(cyclopropylmethoxy)-5-(1-fluorocyclobutyl)pyridine-2-carboxamide] | 11.9 | > 10000 |  |  |
| NC(=O)CC1(NC(=O)c2ccc(C3(O)CCC3)c(OCC3CC3)n2)COC1 [Example 90, N-[3-(2-Amino-2-oxoethyl)oxetan-3-yl]-6-(cyclopropylmethoxy)-5-(1-hydroxycyclobutyl)pyridine-2-carboxamide] | 8.8 | > 10000 |  |  |
| CCOC(=O)CC(NC(=O)c1ccc(N2CC(F)(F)C2)c(OCC2CC2)n1)c1ccccc1 (stereo not shown) [Example 4, 3-{[6-Cyclopropylmethoxy-5-(3,3-difluoro-azetidin-1-yl)-pyridine-2-carbonyl]-amino}-3-phenyl-propionic acid ethyl ester] | 4.2 | > 10000 |  |  |
| NC(=O)CC(NC(=O)c1ccc(C2CC2)c(OCC2CC2)n1)C1CC1 (single isomer, unassigned; (+)) [Example 28, (+)-5-Cyclopropyl-6-cyclopropylmethoxy-pyridine-2-carboxylic acid (2-carbamoyl-1-cyclopropyl-ethyl)-amide] | 3 | > 10000 |  |  |
| NC(=O)CC1(NC(=O)c2ccc(OCC3CC3)c(Cl)n2)COC1 [Example 47, 6-Chloro-5-cyclopropylmethoxy-pyridine-2-carboxylic acid (3-carbamoylmethyl-oxetan-3-yl)-amide] | 793 | > 10000 |  |  |
| CCOC(=O)C1(CNC(=O)c2ccc(N3CC(F)(F)C3)c(OCC3CC3)n2)CC1 [Example 71, Ethyl 1-[[[6-(cyclopropylmethoxy)-5-(3,3-difluoroazetidin-1-yl)pyridine-2-carbonyl]amino]methyl]cyclopropane-1-carboxylate] | 60.6 | > 10000 |  |  |
